In patent US20260199492A1, “PSD-95 DOMAIN INHIBITOR, AND PREPARATION METHOD THEREFOR AND USE THEREOF” (SHENZHEN SALUBRIS PHARMACEUTICALS CO., LTD, priority 2023, published 2026):
Square brackets hold non-standard residues; d marks the D form. Ends that are not written are not given here. Peptide text beside a SMILES is read from it.

Columns and labels:
[1] = Tissue distribution experiment of TAMRA-labeled compounds; type: in vivo; details: TAMRA-labeled compound, male Balb/c mice, 3 nmol/g tail vein injection, 45 min circulation, after perfusion
Procedure: The TAMRA-labeled example compounds were dissolved in saline to prepare a solution with a concentration of 600 μM/mL. A 100 μL of the above prepared solution was administered, at a dose of 3 nmol/g, to 6-week-old male Balb/c mice (18-22 g) via tail vein injection. After 45 min of circulation, the animals were deeply anesthetized by intraperitoneal injection of sodium pentobarbital. The thoracic cavity was opened, and the mice were subjected to cardiac perfusion using 0.01 M PBS (pH 7.4), and the brains, kidneys, and livers were collected at the end of perfusion. The harvested tissues were immediately placed on ice and stored at −80° C. […] The supernatant was transferred to a black 96-well plate with a clear bottom, and the TAMRA-peptide was quantified using a PHERAstar FSX plate reader (BMG LABTECH, Ortenberg, Germany). The excitation/emission wavelengths were set at 540/580 nm. The corresponding peptide concentration in the tissues was calculated using a standard curve (blank tissue mixed with TAMRA-peptide, concentration range of 0-1000 nM).

[2] = biological target: PDZ1-2 of PSD95 (Homo sapiens, UniProt P78352); experiment: Fluorescence polarization competition binding assay of PDZ1-2 with probe 5-FAM-NA-1
[3] = Toxicological experiment: serum UREA and CREA after 5 days of i.v. dosing; type: in vivo, SD rats; details: male SD rats, 30 mg/kg i.v. once daily for 5 days, serum 2 h after dosing on day 5
Procedure: The compounds of Examples 1-8 were accurately weighed into suitable EP tubes, and the vehicle (saline) was added to formulate a solution of a concentration of 15 mg/mL. The solution was filtered using a 0.2 μm filter for future use.
A total of 18 male SD rats of 6-7 weeks of age were used for test. After the animal quarantine and acclimatization period, the animals were randomly divided into 6 groups according to their body weights measured before grouping, vehicle control group (saline) as well as example compounds groups, 3 animals/group. Using the above prepared solution, the animal was administered intravenously via the tail vein at a dosage of 30 mg/kg and a dosing volume of 2 mL/kg. The dosing volume for each animal was calculated according to the body weight. Administration was performed once daily for 5 consecutive days. After 2 h of administration on day 5, the animals were deeply anesthetized by intraperitoneal injection of sodium pentobarbital. The thoracic cavity was opened, and blood was collected from the abdominal aorta into blood collection tubes containing inert separation gel and coagulant. The serum was collected by centrifugation (4000 rpm, 10 min) after about 1 h of resting. The concentrations of UREA and CREA in the serum were detected using a biochemical analyzer. The percentage change of each example compound relative to the vehicle control group was calculated using the formula: %=(Concentration of example compound−Concentration of vehicle control group)/Concentration of vehicle control group.

[4] = in vitro; details: human, plasma
Procedure: (§1) • Plasma: Human plasma is commercially available. • Reagents: DMSO (dimethyl sulfoxide), disodium hydrogen phosphate, sodium dihydrogen phosphate, methanol, formic acid, and propranolol (internal standard) are commercially available. • Instrument: AB SCIEX QTRAP 5500+.
(§2) 5 μL of stock solution (10 mM) was diluted with 495 μL of 0.05 M sodium phosphate buffer to 100 μM of dosing solution. The final concentration of tested drug for incubation was 10 μM.
(§3) A certain volume (e.g., 27 μL or 24 μL) of plasma was added into a 96-well plate. An appropriate volume of the internal standard working solution (e.g., 150 μL) was immediately added to precipitate. […] This was performed in duplicate.
(§4) Then, an appropriate amount of plasma (e.g., 27 μL or 24 μL) was added at the designed time points (e.g., 5 min, 15 min, 30 min, 60 min, and 120 min, etc.), and the parallel replicate wells were performed at each time point. […] The reaction was terminated by adding an appropriate amount of internal standard working solution (e.g., 150 μL) at the end of the time, and the mixture was mixed thoroughly.
(§5) The mixture was centrifuged at 4000 rpm for 15 min. A certain amount of the supernatant was taken, mixed with a certain amount of water, and then subjected to LC/MS/MS analysis. LC-MS detection conditions were as follows: • Chromatography column: YMC Triart C18, 50*3.0 mm, 2.1 μm. • Mobile phase: Gradient elution was performed using water (0.1% formic acid)-acetonitrile according to the table below.
(§6) The relative content of drug at each time point was calculated using the initial 0 point as 100%. The half-life of the drug was calculated by plotting “relative drug content” against “incubation time” using GraphPad Prism 5 software.

[5] = In vitro plasma stability experiment (compounds), without or with tPA; details: human, With tPA T1/2, human plasma, 37° C., initial concentration 10 μM, with rt-PA […]
Procedure: as §1, §2, §3, §4, §5, §6

Chain of PDZ1-2 of PSD95 (P78352 61-249 limits assumed): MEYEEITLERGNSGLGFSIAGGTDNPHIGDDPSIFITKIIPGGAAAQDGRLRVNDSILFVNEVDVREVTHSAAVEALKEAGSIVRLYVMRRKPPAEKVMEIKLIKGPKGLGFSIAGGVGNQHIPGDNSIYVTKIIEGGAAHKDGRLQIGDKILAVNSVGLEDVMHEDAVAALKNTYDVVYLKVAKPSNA

Compound	Mean tissue concentration, Brain [1]	IC50 [2]	CREA, percentage change compared to vehicle control group [3]	UREA, percentage change compared to vehicle control group [3]	half-life ([4]; With tPA T1/2)	half-life ([4]; Without tPA T1/2)	half-life at 10 μM [5]
CC[C@H](C)[C@H](NC(=O)[C@H](CO)NC(=O)[C@H](CO)NC(=O)[C@H](CC(C)C)NC(=O)[C@@H](CCCCN)NC(=O)[C@H](CCCNC(=N)N)NC(=O)[C@@H](CCCNC(=N)N)NC(=O)[C@H](CCC(N)=O)NC(=O)[C@@H](CCCNC(=N)N)NC(=O)[C@H](CCCNC(=N)N)NC(=O)[C@H](CCCCN)NC(=O)[C@H](CCCCN)NC(=O)[C@@H](CCCNC(=N)N)NC(=O)CNC(=O)[C@@H](N)Cc1ccc(O)cc1)C(=O)N[C@@H](CCC(=O)O)C(=O)N[C@@H](CO)C(=O)N[C@@H](CC(=O)O)C(=O)N[C@H](C(=O)O)C(C)C [Compound 1] (H-YG[dR]KKR[dR]Q[dR]R[dK]LSSIESDV-OH; N-terminus and C-terminus assumed)	5.9220 nmol/g	14.9 µM	216.9%	206.9%	–	–	–
CC[C@H](C)[C@H](NC(=O)[C@H](CO)NC(=O)[C@H](CO)NC(=O)[C@H](CC(C)C)NC(=O)[C@@H](CCCCN)NC(=O)[C@H](CCCNC(=N)N)NC(=O)[C@H](CCCNC(=N)N)NC(=O)[C@@H](CCCNC(=N)N)NC(=O)[C@H](CCC(=O)O)NC(=O)[C@@H](CCCNC(=N)N)NC(=O)[C@H](CCCNC(=N)N)NC(=O)[C@H](CCCCN)NC(=O)[C@H](CCCCN)NC(=O)[C@@H](CCCNC(=N)N)NC(=O)CNC(=O)[C@@H](N)Cc1ccc(O)cc1)C(=O)N[C@@H](CCC(=O)O)C(=O)N[C@@H](CO)C(=O)N[C@@H](CC(=O)O)C(=O)N[C@H](C(=O)O)C(C)C [Compound 15] (H-YG[dR]KKR[dR]E[dR]RR[dK]LSSIESDV-OH)	4.4515 nmol/g	11.3 µM	90.8%	88.6%	> 33.3 h	> 33.3 h	–
YGRKKRRQRRRKLSSIESDV [NA-1, reference compound]	2.9115 nmol/g	–	–	–	–	–	3.61 min
